Values quoted from earlier work in publication PMC10366102, “Dose escalation and expansion cohorts in patients with advanced breast cancer in a Phase I study of the CDK7-inhibitor samuraciclib” (Nature Communications, 2023).

How the values were obtained:
[1] = system: PIK3CA-mutated HR+ advanced breast cancer; set-up: method as in PMID 33794206; conditions: PIK3CA mutation, post CDK4/6 inhibitor; cited from earlier work
[2] = system: HR+ metastatic breast cancer; set-up: method as in PMID 33230905; conditions: after CDK4/6 inhibitor; cited from earlier work

| SMILES | Median PFS [1] | Median duration of treatment [2] |
| --- | --- | --- |
| Cc1nc(NC(=O)N2CCC[C@H]2C(N)=O)sc1-c1ccnc(C(C)(C)C(F)(F)F)c1 [Alpelisib] | 7.3 months |  |
| CO[C@H]1C[C@@H]2CC[C@@H](C)[C@@](O)(O2)C(=O)C(=O)N2CCCC[C@H]2C(=O)O[C@H]([C@H](C)C[C@@H]2CC[C@@H](OCCO)[C@H](OC)C2)CC(=O)[C@H](C)/C=C(\C)[C@@H](O)[C@@H](OC)C(=O)[C@H](C)C[C@H](C)/C=C/C=C/C=C/1C [everolimus] |  | 3.6 months |
